Assay results reported in ChEMBL document CHEMBL3044736, “Synthesis, characterization, solvatochromic properties, and antimicrobial evaluation of 5-acetyl-2-thioxo-dihydro-pyrimidine-4,6-dione-based chalcones” (2013).
≈ marks a conversion by molar mass, not a printed value.

Columns and labels:
Format in all cases: functional
Penicillium [1] = assay: Antimicrobial activity against Penicillium wild strain assessed as diameter of growth inhibition zone at 50 ug/ml after 48-96 hr by agar cup diffusion method; conditions: read-out: DIZ
Klebsiella pneumoniae [2] = assay: Antimicrobial activity against Klebsiella pneumoniae MTCC 109 assessed as diameter of growth inhibition zone at 50 ug/ml after 18-24 hr by agar cup diffusion method; conditions: read-out: DIZ
Klebsiella pneumoniae [3] = assay: Antimicrobial activity against Klebsiella pneumoniae MTCC 109 by agar cup diffusion method
Pseudomonas aeruginosa [4] = assay: Antimicrobial activity against Pseudomonas aeruginosa MTCC 1688 by agar cup diffusion method
Streptococcus pyogenes [5] = assay: Antimicrobial activity against Streptococcus pyogenes MTCC 442 assessed as diameter of growth inhibition zone at 25 ug/ml after 18-24 hr by agar cup diffusion method; conditions: read-out: DIZ
Pseudomonas aeruginosa [6] = assay: Antimicrobial activity against Pseudomonas aeruginosa MTCC 1688 assessed as diameter of growth inhibition zone at 250 ug/ml after 18-24 hr by agar cup diffusion method; conditions: read-out: DIZ
Staphylococcus aureus [7] = assay: Antimicrobial activity against Staphylococcus aureus MTCC 96 by agar cup diffusion method
Aspergillus clavatus [8] = assay: Antimicrobial activity against Aspergillus clavatus MTCC 1323 assessed as diameter of growth inhibition zone at 25 ug/ml after 48-96 hr by agar cup diffusion method; conditions: read-out: DIZ
Candida albicans [9] = assay: Antimicrobial activity against Candida albicans MTCC 227 by agar cup diffusion method
Pseudomonas aeruginosa [10] = assay: Antimicrobial activity against Pseudomonas aeruginosa MTCC 1688 assessed as diameter of growth inhibition zone at 100 ug/ml after 18-24 hr by agar cup diffusion method; conditions: read-out: DIZ
Penicillium [11] = assay: Antimicrobial activity against Penicillium wild strain assessed as diameter of growth inhibition zone at 250 ug/ml after 48-96 hr by agar cup diffusion method; conditions: read-out: DIZ
Trichophyton rubrum [12] = assay: Antimicrobial activity against Trichophyton rubrum MTCC 296 assessed as diameter of growth inhibition zone at 100 ug/ml after 48-96 hr by agar cup diffusion method; conditions: read-out: DIZ
Streptococcus pyogenes [13] = assay: Antimicrobial activity against Streptococcus pyogenes MTCC 442 assessed as diameter of growth inhibition zone at 50 ug/ml after 18-24 hr by agar cup diffusion method; conditions: read-out: DIZ
Staphylococcus aureus [14] = assay: Antimicrobial activity against Staphylococcus aureus MTCC 96 assessed as diameter of growth inhibition zone at 25 ug/ml after 18-24 hr by agar cup diffusion method; conditions: read-out: DIZ
Streptococcus pyogenes [15] = assay: Antimicrobial activity against Streptococcus pyogenes MTCC 442 by agar cup diffusion method
Penicillium [16] = assay: Antimicrobial activity against Penicillium wild strain assessed as diameter of growth inhibition zone at 25 ug/ml after 48-96 hr by agar cup diffusion method; conditions: read-out: DIZ
Candida albicans [17] = assay: Antimicrobial activity against Candida albicans MTCC 227 assessed as diameter of growth inhibition zone at 250 ug/ml after 48-96 hr by agar cup diffusion method; conditions: read-out: DIZ
Escherichia coli [18] = assay: Antimicrobial activity against Escherichia coli MTCC 443 assessed as diameter of growth inhibition zone at 50 ug/ml after 18-24 hr by agar cup diffusion method; conditions: read-out: DIZ
Klebsiella pneumoniae [19] = assay: Antimicrobial activity against Klebsiella pneumoniae MTCC 109 assessed as diameter of growth inhibition zone at 25 ug/ml after 18-24 hr by agar cup diffusion method; conditions: read-out: DIZ
Trichophyton rubrum [20] = assay: Antimicrobial activity against Trichophyton rubrum MTCC 296 assessed as diameter of growth inhibition zone at 25 ug/ml after 48-96 hr by agar cup diffusion method; conditions: read-out: DIZ
Staphylococcus aureus [21] = assay: Antimicrobial activity against Staphylococcus aureus MTCC 96 assessed as diameter of growth inhibition zone at 250 ug/ml after 18-24 hr by agar cup diffusion method; conditions: read-out: DIZ
Escherichia coli [22] = assay: Antimicrobial activity against Escherichia coli MTCC 443 assessed as diameter of growth inhibition zone at 25 ug/ml after 18-24 hr by agar cup diffusion method; conditions: read-out: DIZ
Penicillium [23] = assay: Antimicrobial activity against Penicillium wild strain by agar cup diffusion method
Klebsiella pneumoniae [24] = assay: Antimicrobial activity against Klebsiella pneumoniae MTCC 109 assessed as diameter of growth inhibition zone at 100 ug/ml after 18-24 hr by agar cup diffusion method; conditions: read-out: DIZ
Klebsiella pneumoniae [25] = assay: Antimicrobial activity against Klebsiella pneumoniae MTCC 109 assessed as diameter of growth inhibition zone at 250 ug/ml after 18-24 hr by agar cup diffusion method; conditions: read-out: DIZ
Trichophyton rubrum [26] = assay: Antimicrobial activity against Trichophyton rubrum MTCC 296 assessed as diameter of growth inhibition zone at 250 ug/ml after 48-96 hr by agar cup diffusion method; conditions: read-out: DIZ
Pseudomonas aeruginosa [27] = assay: Antimicrobial activity against Pseudomonas aeruginosa MTCC 1688 assessed as diameter of growth inhibition zone at 50 ug/ml after 18-24 hr by agar cup diffusion method; conditions: read-out: DIZ
Staphylococcus aureus [28] = assay: Antimicrobial activity against Staphylococcus aureus MTCC 96 assessed as diameter of growth inhibition zone at 100 ug/ml after 18-24 hr by agar cup diffusion method; conditions: read-out: DIZ
Escherichia coli [29] = assay: Antimicrobial activity against Escherichia coli MTCC 443 assessed as diameter of growth inhibition zone at 100 ug/ml after 18-24 hr by agar cup diffusion method; conditions: read-out: DIZ
Escherichia coli [30] = assay: Antimicrobial activity against Escherichia coli MTCC 443 by agar cup diffusion method
Candida albicans [31] = assay: Antimicrobial activity against Candida albicans MTCC 227 assessed as diameter of growth inhibition zone at 25 ug/ml after 48-96 hr by agar cup diffusion method; conditions: read-out: DIZ
Streptococcus pyogenes [32] = assay: Antimicrobial activity against Streptococcus pyogenes MTCC 442 assessed as diameter of growth inhibition zone at 250 ug/ml after 18-24 hr by agar cup diffusion method; conditions: read-out: DIZ
Trichophyton rubrum [33] = assay: Antimicrobial activity against Trichophyton rubrum MTCC 296 assessed as diameter of growth inhibition zone at 50 ug/ml after 48-96 hr by agar cup diffusion method; conditions: read-out: DIZ
Candida albicans [34] = assay: Antimicrobial activity against Candida albicans MTCC 227 assessed as diameter of growth inhibition zone at 100 ug/ml after 48-96 hr by agar cup diffusion method; conditions: read-out: DIZ
Streptococcus pyogenes [35] = assay: Antimicrobial activity against Streptococcus pyogenes MTCC 442 assessed as diameter of growth inhibition zone at 100 ug/ml after 18-24 hr by agar cup diffusion method; conditions: read-out: DIZ
Trichophyton rubrum [36] = assay: Antimicrobial activity against Trichophyton rubrum MTCC 296 by agar cup diffusion method
Aspergillus clavatus [37] = assay: Antimicrobial activity against Aspergillus clavatus MTCC 1323 by agar cup diffusion method
Penicillium [38] = assay: Antimicrobial activity against Penicillium wild strain assessed as diameter of growth inhibition zone at 100 ug/ml after 48-96 hr by agar cup diffusion method; conditions: read-out: DIZ
Aspergillus clavatus [39] = assay: Antimicrobial activity against Aspergillus clavatus MTCC 1323 assessed as diameter of growth inhibition zone at 50 ug/ml after 48-96 hr by agar cup diffusion method; conditions: read-out: DIZ
Staphylococcus aureus [40] = assay: Antimicrobial activity against Staphylococcus aureus MTCC 96 assessed as diameter of growth inhibition zone at 50 ug/ml after 18-24 hr by agar cup diffusion method; conditions: read-out: DIZ
Aspergillus clavatus [41] = assay: Antimicrobial activity against Aspergillus clavatus MTCC 1323 assessed as diameter of growth inhibition zone at 250 ug/ml after 48-96 hr by agar cup diffusion method; conditions: read-out: DIZ
Escherichia coli [42] = assay: Antimicrobial activity against Escherichia coli MTCC 443 assessed as diameter of growth inhibition zone at 250 ug/ml after 18-24 hr by agar cup diffusion method; conditions: read-out: DIZ
Aspergillus clavatus [43] = assay: Antimicrobial activity against Aspergillus clavatus MTCC 1323 assessed as diameter of growth inhibition zone at 100 ug/ml after 48-96 hr by agar cup diffusion method; conditions: read-out: DIZ
Candida albicans [44] = assay: Antimicrobial activity against Candida albicans MTCC 227 assessed as diameter of growth inhibition zone at 50 ug/ml after 48-96 hr by agar cup diffusion method; conditions: read-out: DIZ
Pseudomonas aeruginosa [45] = assay: Antimicrobial activity against Pseudomonas aeruginosa MTCC 1688 assessed as diameter of growth inhibition zone at 25 ug/ml after 18-24 hr by agar cup diffusion method; conditions: read-out: DIZ

For O=C(/C=C/c1ccc([N+](=O)[O-])cc1)C1C(=O)NC(=S)NC1=O, the zone of inhibition at 50 µg/mL (Penicillium [1]) was 21 mm, the zone of inhibition at 50 µg/mL (Klebsiella pneumoniae [2]) was 13 mm and the MBC (Klebsiella pneumoniae [3]) was 200 µg/mL (≈ 626 µM). It also gave an MIC (Klebsiella pneumoniae [3]) of 200 µg/mL (≈ 626 µM), an MBC (Pseudomonas aeruginosa [4]) of 250 µg/mL (≈ 783 µM) and an MIC (Pseudomonas aeruginosa [4]) of 250 µg/mL (≈ 783 µM). The zone of inhibition at 25 µg/mL (Streptococcus pyogenes [5]) was 12 mm, the zone of inhibition at 250 µg/mL (Pseudomonas aeruginosa [6]) was 20 mm and the MBC (Staphylococcus aureus [7]) was 200 µg/mL (≈ 626 µM). For the same compound, the MIC (Staphylococcus aureus [7]) was 125 µg/mL (≈ 391 µM), the zone of inhibition at 25 µg/mL (Aspergillus clavatus [8]) was 20 mm and the MFC (Candida albicans [9]) was 1000 µg/mL (≈ 3130 µM). The MIC (Candida albicans [9]) was 1000 µg/mL (≈ 3130 µM), the zone of inhibition at 100 µg/mL (Pseudomonas aeruginosa [10]) was 18 mm and the zone of inhibition at 250 µg/mL (Penicillium [11]) was 25 mm. For the same compound, the zone of inhibition at 100 µg/mL (Trichophyton rubrum [12]) was 23 mm, the zone of inhibition at 50 µg/mL (Streptococcus pyogenes [13]) was 15 mm and the zone of inhibition at 25 µg/mL (Staphylococcus aureus [14]) was 11 mm. It also gave an MBC (Streptococcus pyogenes [15]) of 100 µg/mL (≈ 313 µM), an MIC (Streptococcus pyogenes [15]) of 100 µg/mL (≈ 313 µM) and a zone of inhibition at 25 µg/mL (Penicillium [16]) of 21 mm. The zone of inhibition at 250 µg/mL (Candida albicans [17]) was 25 mm, the zone of inhibition at 50 µg/mL (Escherichia coli [18]) was 15 mm and the zone of inhibition at 25 µg/mL (Klebsiella pneumoniae [19]) was 11 mm. For the same compound, the zone of inhibition at 25 µg/mL (Trichophyton rubrum [20]) was 20 mm, the zone of inhibition at 250 µg/mL (Staphylococcus aureus [21]) was 20 mm and the zone of inhibition at 25 µg/mL (Escherichia coli [22]) was 12 mm. The MFC (Penicillium [23]) was 500 µg/mL (≈ 1570 µM), the MIC (Penicillium [23]) was 500 µg/mL (≈ 1570 µM) and the zone of inhibition at 100 µg/mL (Klebsiella pneumoniae [24]) was 15 mm. It also gave a zone of inhibition at 250 µg/mL (Klebsiella pneumoniae [25]) of 16 mm, a zone of inhibition at 250 µg/mL (Trichophyton rubrum [26]) of 25 mm and a zone of inhibition at 50 µg/mL (Pseudomonas aeruginosa [27]) of 13 mm. The zone of inhibition at 100 µg/mL (Staphylococcus aureus [28]) was 18 mm, the zone of inhibition at 100 µg/mL (Escherichia coli [29]) was 19 mm and the MBC (Escherichia coli [30]) was 500 µg/mL (≈ 1570 µM). For the same compound, the MIC (Escherichia coli [30]) was 250 µg/mL (≈ 783 µM), the zone of inhibition at 25 µg/mL (Candida albicans [31]) was 20 mm and the zone of inhibition at 250 µg/mL (Streptococcus pyogenes [32]) was 23 mm. The zone of inhibition at 50 µg/mL (Trichophyton rubrum [33]) was 22 mm, the zone of inhibition at 100 µg/mL (Candida albicans [34]) was 25 mm and the zone of inhibition at 100 µg/mL (Streptococcus pyogenes [35]) was 19 mm. The MFC (Trichophyton rubrum [36]) was 1000 µg/mL (≈ 3130 µM), the MIC (Trichophyton rubrum [36]) was 1000 µg/mL (≈ 3130 µM) and the MFC (Aspergillus clavatus [37]) was 1000 µg/mL (≈ 3130 µM). The MIC (Aspergillus clavatus [37]) was 1000 µg/mL (≈ 3130 µM), the zone of inhibition at 100 µg/mL (Penicillium [38]) was 23 mm and the zone of inhibition at 50 µg/mL (Aspergillus clavatus [39]) was 21 mm. The zone of inhibition at 50 µg/mL (Staphylococcus aureus [40]) was 13 mm, the zone of inhibition at 250 µg/mL (Aspergillus clavatus [41]) was 24 mm and the zone of inhibition at 250 µg/mL (Escherichia coli [42]) was 23 mm. The zone of inhibition at 100 µg/mL (Aspergillus clavatus [43]) was 22 mm, the zone of inhibition at 50 µg/mL (Candida albicans [44]) was 21 mm and the zone of inhibition at 25 µg/mL (Pseudomonas aeruginosa [45]) was 11 mm.
